In ChEMBL document CHEMBL3507680, “University of Dundee, Gates Library screen for HepG2 cell viability”:

Experiment: Human HepG2 cell viability assay in 384 well format
Format: toxicity, cell-based
Parameters: dose 125 nL, time 70.5 hour; concentration not given beside the values
Conditions: HepG2 cells, read-out: Inhibition

| SMILES | cytotoxicity at 70.5 h [%] |
| --- | --- |
| Cc1nn(C)c(C)c1-c1ccc(=O)n(C(C)C(=O)NC2CCCCC2)n1 (stereo not given) | -17.2 |
| Cc1cc(-c2cnc(N3CCN(C)CC3)nc2C(C)C)on1 | -3.07 |
| Cc1cc(-c2cnc(N3CCC(O)CC3)nc2C(C)C)on1 | 20.4 |
| Cc1cc(-c2cnc(N3CCC(C(N)=O)CC3)nc2C(C)C)on1 | 9.37 |
| Cc1cc(O)n2nc(C3CCN(C(=O)c4ccccn4)CC3)cc2n1 | 18.6 |
| CCc1cc(O)n2nc(C3CCN(C(=O)c4cccnc4)CC3)cc2n1 | 21.2 |
| CCc1nc(-c2cncnc2C2CCNC2)no1 (stereo not given) | 18 |
| COCC(=O)N1CCCC(C)(c2nncn2C)C1 (stereo not given) | -14.6 |
| OCCN1CCC(Cc2nccs2)CC1 | 1.19 |
| O=C(N[C@@H]1CN(CCc2ccc(F)cc2)C[C@H]1O)c1cscn1 | -6.14 |
| CN(c1ccncn1)C1CC2(CCN(C(=O)c3cccn3C)C2)C1 (stereo not given) | -0.487 |
| Cc1ncsc1CN1CC[C@H](O)[C@@H](n2cnc3c(N)ncnc32)CC1 | 8.32 |
| CC1CCCCN1c1nc2c(c(=O)[nH]1)CCN(Cc1ccc(O)cc1)C2 (stereo not given) | -8.85 |
| CC1CCCCN1c1nc2c(c(=O)[nH]1)CCN(Cc1ccccc1O)C2 (stereo not given) | -7.53 |
| CN(C)C(=O)CCc1cncc(C2CCCN2Cc2ccccn2)n1 (stereo not given) | -6.05 |
| Cn1ccc(C(=O)N2CCC(Cc3cccc4ncccc34)CC2)n1 | -6.71 |
| Cc1cc(N2CCCC(c3n[nH]c4ncccc34)C2)ncn1 (stereo not given) | -4.69 |
| NC(=O)CN1CCCC1c1csc(Nc2cnccn2)n1 (stereo not given) | -9.23 |
| Cn1cc(CN2CCC(c3[nH]ncc3S(C)(=O)=O)C2)cn1 (stereo not given) | -2.27 |
| CN1CCc2nc(C3CCCN(C(=O)CC(C)(C)C)C3)ncc2C1 (stereo not given) | -6.36 |
| Cc1cnccc1CN1CC[C@@](C)(O)[C@H](Oc2cccc(F)c2)C1 | -1.49 |
| Cn1cncc1CN1CC[C@](C)(O)[C@@H](Oc2cccc(F)c2)C1 | 13.9 |
| CO[C@H]1CCN(C(=O)c2ccc3oc(C)cc3c2)C[C@@]12CCCO2 | -5.42 |
| Cc1nccc(CN2CC[C@@]3(CCCN3Cc3ccccc3)[C@@H](O)C2)n1 | 1.99 |
| Cc1cccnc1CN1CC[C@H](Oc2cccc(F)c2)[C@@](C)(O)C1 | -0.828 |
| C[C@]1(O)CN(CCO)CC[C@@H]1Oc1cccc(F)c1 | -2.99 |
| Cc1ccc(CN2CCCC(c3cncc(C)n3)C2)cn1 (stereo not given) | -2.94 |

| SMILES | cytotoxicity at 70.5 h [%] |
| --- | --- |
| Cc1cnc(CC2COCCN(Cc3nccn3C)C2)cn1 (stereo not given) | -1.89 |
| Cn1ccnc1CC1CCCN(C(=O)Cc2ccccc2)C1 (stereo not given) | -1.68 |
| CC(C)N1CCC(c2cc(C(F)(F)F)n3ccnc3n2)CC1 | 12.6 |
| CC(=O)N1CCN([C@@H]2CCC[C@@H](N(C)C(=O)C3CC3)[C@H]2O)CC1 | -1.88 |
| CNc1nc(C2CCCN2C(C)=O)nc2c1CN(C1CCCC1)CC2 (stereo not given) | -4.73 |
| Cc1csc(C(=O)N2CCC(O)(CN3CCc4ccccc4C3)C2)c1 (stereo not given) | -3.4 |
| CN(C)S(=O)(=O)N1CCCC1c1cccc(-n2ccnc2)n1 (stereo not given) | -4.96 |
| O=S(=O)(c1ccc(F)cc1)N1CCCCC1c1cc[nH]n1 (stereo not given) | -6.41 |
| O=S(=O)(c1ccccc1F)N1CCCCC1c1cc[nH]n1 (stereo not given) | -5 |
| Cc1cccc(C(=O)N2CCCCC2c2[nH]ncc2S(C)(=O)=O)c1 (stereo not given) | -2.12 |
| CNc1cncc(C2CCCN2C(=O)Cn2c(=O)oc3ccccc32)n1 (stereo not given) | -5.11 |
| O=C1CCCN1CCCC(=O)N1CCCC(Cc2cccnc2)C1 (stereo not given) | -4.43 |
| CNc1cncc(C2CCCN2C(=O)c2ccc3nc(C)[nH]c3c2)n1 (stereo not given) | -3.29 |
| Cc1ncsc1-c1nnc(C2CCN(Cc3ccccc3F)CC2)o1 | -0.587 |
| CC(C)c1nccn1-c1cncc(C2CCCN(C3CCCC3)C2)n1 (stereo not given) | 19.3 |
| O=C(C1CCCC1)N1CCCC(c2cccc(-n3ccnc3)n2)C1 (stereo not given) | 16.6 |
| NC[C@H]1CC[C@H](C(NC(=O)CC2CCCC2)c2ccccn2)CC1 (stereo not given in full) | -0.374 |
| CNc1ncccc1CN1CCCCC1c1ccnc(N)n1 (stereo not given) | -3.08 |
| COc1ccccc1C(=O)NC(c1ccccn1)[C@H]1CC[C@H](CN)CC1 (stereo not given in full) | -4.28 |
| CN1CCc2nc(C3CCCN(C(=O)CC4CCCCC4)C3)ncc2C1 (stereo not given) | 0.186 |
| CN(C)S(=O)(=O)N1CCCC(c2cccc(Cc3ccc(F)cc3)n2)C1 (stereo not given) | 3.53 |
| COCCN1CCCC(c2nccnc2Nc2nc(C)cs2)C1 (stereo not given) | -4.96 |
| CC(C)(C)NC(=O)Cn1c(=O)n(Cc2ccco2)c2ncccc21 | -3.69 |
| CCc1cc(O)nc(C2CCCN(Cc3ccncc3)C2)n1 (stereo not given) | -1.03 |
| COc1cc2nc3n(c(=O)c2cc1OC)CCN(C(=O)C1CC1)CC3 | 20 |
| CCN1CCN(Cc2c(-c3ccco3)[nH]c3ncccc23)CC1 | -3.87 |
| Cc1ccc(C(=O)N2CCc3nc4c(C)csc4c(=O)n3CC2)cn1 | -4.08 |

| SMILES | cytotoxicity at 70.5 h [%] |
| --- | --- |
| O=C(C1CCCCC1)N1CCC(c2n[nH]c3nccnc23)CC1 | -2.95 |
| COCc1cc(O)nc(C2CCCN(Cc3ccc(F)cc3)C2)n1 (stereo not given) | -0.561 |
| COCc1cc(O)nc(C2CCCN(Cc3cccc(OC)c3)C2)n1 (stereo not given) | -1.68 |
| CCn1cc(C(=O)N2CCOC(c3nc(-c4cccs4)no3)C2)cn1 (stereo not given) | -2.41 |
| O=C(N[C@@H]1CN(Cc2ccc(F)c(F)c2)C[C@H]1O)c1cscn1 | -5.02 |
| Cc1ccc(C(=O)N2CCC3(CC(N(C)c4ccncn4)C3)C2)cn1 (stereo not given) | -2.36 |
| Cc1noc(C)c1C(=O)N1CCC2(CC(N(C)c3ccncn3)C2)C1 (stereo not given) | -6.65 |
| CC(=O)NC[C@]1(O)CCN(C(=O)c2ccc3c(c2)CCC3)C[C@H]1O | -3.52 |
| CC(=O)N1CCN([C@@H]2CC[C@@H](N(C)C(=O)C3CCCCC3)[C@H]2O)CC1 | -5.4 |
| Cc1ncsc1CN1CC[C@](C)(O)[C@@H](Oc2cccc(F)c2)C1 | -3.09 |
| CC(=O)NC[C@]1(O)CCN(C(=O)c2ccc3c(c2)OCO3)C[C@H]1O | -4.98 |
| Cc1ncsc1-c1nnc(C2CCN(Cc3cccc(Cl)c3)CC2)o1 | -1.29 |
| Cc1ncsc1-c1nnc(C2CCN(Cc3ccccc3Cl)CC2)o1 | -0.461 |
| COc1ccc(CN2CCC(c3nnc(-c4scnc4C)o3)CC2)cc1 | -3.83 |
| CN(C)[C@@H]1CN(C(=O)COc2cccc(F)c2)C[C@H]1O | -9.79 |
| C[C@]1(O)CN(Cc2ccc(C(=O)O)cc2)CC[C@@H]1Oc1cccc(F)c1 | -10.9 |
| CCc1nccn1-c1cccc(C2CCCN2S(=O)(=O)N(C)C)n1 (stereo not given) | -7.54 |
| COCC(=O)N1CCC(c2n[nH]c3nccnc23)CC1 | -7.45 |
| c1ncc(-c2ccc(C3CNCCO3)nc2)cn1 (stereo not given) | -3.27 |
| Cc1nc(-c2cncnc2C2CCCNC2)no1 (stereo not given) | 26.9 |
| Cc1cc(C[C@@H]2CCC[C@H]2NCc2ccccc2F)on1 | -2.37 |
| COc1ccc(CN2CCC(c3cc(O)nc(C)n3)C2)c(OC)c1 (stereo not given) | -3.26 |
| CN(C)CCN(C)C(=O)Cc1ccc2c(c1)OCCO2 | 0.0835 |
| Cc1nc(O)cc(C2CCN(Cc3ccc(F)c(F)c3)C2)n1 (stereo not given) | -5.53 |
| Cc1cccc(CN(Cc2cccnc2)C2CC(C)(C)NC(C)(C)C2)n1 | -1.41 |
| CNc1nc(C2CCCN2C(C)=O)nc2c1CN(CCO)CC2 (stereo not given) | -3.16 |
